Measurements as given in US20260092083A1, “VANCOMYCIN DERIVATIVES WITH SIDEROPHORE MODIFICATION AS NOVEL REPURPOSED ANTIBIOTICS TO COMBAT GRAM-NEGATIVE BACTERIAL INFECTION” (priority 2023, published 2026).
Values after ≈ are worked out from the molar mass of the structure shown.

Experiments:
Assay type in all cases: cell-based
[1] = system: E. coli (wild-type) BW25113; assay: Broth microdilution MIC, E. coli wild-type; conditions: Escherichia coli, iron-depleted CAMHB, OD600 ≤0.15, read-out: MIC (μg/mL) Gram-negative EC
Protocol: (§1) The test compounds including vancomycin hydrochloride were supplied as a 6.4 mg/mL solution in 100% dimethyl sulfoxide (DMSO) aliquoted into individual wells of a 96-well plate (50 μL per well). […] Standardized inocula were added to the MIC test plates, which were incubated for the prescribed times at 35° C. The N. gonorrhoeae strain was incubated in an atmosphere containing 5% CO2.
(§2) The final optical density of each well at 600 nm was measured using a Tecan Spark plate reader. The compound concentration versus OD600 data were then curve fit using custom software. An MIC value was defined as the lowest compound concentration that led to an OD600 value≤0.15 for the E. coli, K. pneumoniae, P. aeruginosa, A. baumannii, or S. aureus strains. For the N. gonorrhoeae strain, an OD600 value≤0.19 was used as a cutoff to define an MIC value; this higher cut-off value was required because the N. gonorrhoeae MIC plates were covered with plastic seals that increased the background OD600 value.
(§3) JMI Laboratories followed current CLSI quality assurance practices when performing the susceptibility tests. MIC values were validated by concurrently testing the CLSI-recommended ATCC QC reference strains S. aureus ATCC 29213 and K. pneumoniae ATCC 700603. The inoculum density during susceptibility testing was monitored by bacterial colony counts. Where applicable, QC ranges for tested reference strains were those ranges approved or published by CLSI for testing in CAMHB. […] Importantly, the CLSI reference method for testing N. gonorrhoeae is the agar dilution MIC method, which was not used here. Thus, CLSI MIC QC ranges for N. gonorrhoeae could not be applied to the antimicrobials studied here.
(§4) Abbreviations: EC, E. coli (wild-type) BW25113; EC efflux^−, E. coli (tolC) JW5503-1; KPN, K. pneumoniae ATCC 700603; PSA, P. aeruginosa PAO1; PSA efflux^−, P. aeruginosa (multi-pump-gene mutant) PAM1626; ACB, A. baumannii JMI #1186154; GC, N. gonorrhoeae WHO-Z; SA, S. aureus ATCC 29213. Broth microdilution MIC values were measured in iron-depleted CAMHB for all strains except for GC, which was tested in fastidious broth.

E. coli (tolC) JW5503-1 = assay: Broth microdilution MIC, E. coli efflux-deficient (tolC); conditions: Escherichia coli, read-out: MIC (μg/mL) Gram-negative EC Efflux
Protocol: as §1, §2, §3, §4

[2] = system: K. pneumoniae ATCC 700603; assay: Broth microdilution MIC, K. pneumoniae; conditions: Klebsiella pneumoniae, ATCC700603, read-out: MIC (μg/mL) Gram-negative KPN
Protocol: as §1, §2, §3, §4

P. aeruginosa PAO1 = assay: Broth microdilution MIC, P. aeruginosa; conditions: Pseudomonas aeruginosa, iron-depleted CAMHB, OD600 ≤0.15, read-out: MIC (μg/mL) Gram-negative PSA
Protocol: as §1, §2, §3, §4

[3] = system: P. aeruginosa (multi-pump-gene mutant) PAM1626; assay: Broth microdilution MIC, P. aeruginosa efflux-deficient; conditions: Pseudomonas aeruginosa, read-out: MIC (μg/mL) Gram-negative PSA Efflux
Protocol: as §1, §2, §3, §4

[4] = system: A. baumannii JMI #1186154; assay: Broth microdilution MIC, A. baumannii; conditions: Acinetobacter baumannii, iron-depleted CAMHB, OD600 ≤0.15, read-out: MIC (μg/mL) Gram-negative ACB
Protocol: as §1, §2, §3, §4

N. gonorrhoeae WHO-Z = assay: Broth microdilution MIC, N. gonorrhoeae; conditions: Neisseria gonorrhoeae, read-out: MIC (μg/mL) Gram-negative GC
Protocol: as §1, §2, §3, §4

S. aureus ATCC 29213 = assay: Broth microdilution MIC, S. aureus; conditions: Staphylococcus aureus, ATCC29213, iron-depleted CAMHB, OD600 ≤0.15, read-out: MIC (μg/mL) Gram positive SA
Protocol: as §1, §2, §3, §4

Row | SMILES | MIC [1] [µg/mL] | MIC (E. coli (tolC) JW5503-1) [µg/mL] | MIC [2] [µg/mL] | MIC (P. aeruginosa PAO1) [µg/mL] | MIC [3] [µg/mL] | MIC [4] [µg/mL] | MIC (N. gonorrhoeae WHO-Z) [µg/mL] | MIC (S. aureus ATCC 29213) [µg/mL]
1 | CNC(CC(C)C)C(=O)N[C@H]1C(=O)N[C@@H](CC(N)=O)C(=O)N[C@H]2C(=O)N[C@H]3C(=O)N[C@H](C(=O)N[C@@H](C(=O)NCCNC(=O)c4ccc(O)c(O)c4Cl)c4cc(O)cc(O)c4-c4cc3ccc4O)[C@H](O)c3ccc(c(Cl)c3)Oc3cc2cc(c3OC2O[C@H](CO)C(O)C(O)[C@H]2O[C@H]2CC(C)(N)[C@H](O)C(C)O2)Oc2ccc(cc2Cl)[C@H]1O (stereo in doubt) [Compound 3] | 16 (≈ 9.63 µM) | > 64 | > 64 | > 64 | > 64 | 2 (≈ 1.2 µM) | > 64 | 4 (≈ 2.41 µM)
2 | CNC(CC(C)C)C(=O)N[C@H]1C(=O)N[C@@H](CC(N)=O)C(=O)N[C@H]2C(=O)N[C@H]3C(=O)N[C@H](C(=O)N[C@@H](C(=O)NCCOCCNC(=O)c4ccc(O)c(O)c4Cl)c4cc(O)cc(O)c4-c4cc3ccc4O)[C@H](O)c3ccc(c(Cl)c3)Oc3cc2cc(c3OC2O[C@H](CO)C(O)C(O)[C@H]2O[C@H]2CC(C)(N)[C@H](O)C(C)O2)Oc2ccc(cc2Cl)[C@H]1O (stereo in doubt) [Compound 10] | 16 (≈ 9.38 µM) | > 64 | > 64 | > 64 | > 64 | 2 (≈ 1.17 µM) | > 64 | 4 (≈ 2.34 µM)
3 | CN[C@H](CC(C)C)C(=O)N[C@H]1C(=O)N[C@@H](CC(N)=O)C(=O)N[C@H]2C(=O)N[C@H]3C(=O)N[C@H](C(=O)N[C@H](C(=O)NCCOCCOCCNC(=O)c4ccc(O)c(O)c4Cl)c4cc(O)cc(O)c4-c4cc3ccc4O)[C@H](O)c3ccc(c(Cl)c3)Oc3cc2cc(c3O[C@@H]2O[C@H](CO)C(O)C(O)[C@H]2O[C@H]2CC(C)(N)[C@H](O)[C@H](C)O2)Oc2ccc(cc2Cl)[C@H]1O (stereo in doubt) [Compound 11] | 64 (≈ 36.6 µM) | > 64 | > 64 | > 64 | > 64 | 1 (≈ 0.571 µM) | > 64 | 4 (≈ 2.29 µM)
4 | CNC(CC(C)C)C(=O)N[C@H]1C(=O)N[C@@H](CC(N)=O)C(=O)N[C@H]2C(=O)N[C@H]3C(=O)N[C@H](C(=O)N[C@@H](C(=O)NCc4cn(CCNC(=O)c5cccc(O)c5O)nn4)c4cc(O)cc(O)c4-c4cc3ccc4O)[C@H](O)c3ccc(c(Cl)c3)Oc3cc2cc(c3OC2O[C@H](CO)C(O)C(O)[C@H]2O[C@H]2CC(C)(N)[C@H](O)C(C)O2)Oc2ccc(cc2Cl)[C@H]1O (stereo in doubt) [Compound 14] | > 64 | > 64 | > 64 | > 64 | > 64 | 16 (≈ 9.36 µM) | > 64 | 4 (≈ 2.34 µM)
5 | CN[C@H](CC(C)C)C(=O)N[C@H]1C(=O)N[C@@H](CC(N)=O)C(=O)N[C@H]2C(=O)N[C@H]3C(=O)N[C@H](C(=O)N[C@H](C(=O)NCCOCCOCCNS(=O)(=O)c4ccc(O)c(O)c4)c4cc(O)cc(O)c4-c4cc3ccc4O)[C@H](O)c3ccc(c(Cl)c3)Oc3cc2cc(c3O[C@@H]2O[C@H](CO)C(O)C(O)[C@H]2O[C@H]2CC(C)(N)[C@H](O)[C@H](C)O2)Oc2ccc(cc2Cl)[C@H]1O (stereo in doubt) [Compound 18] | 64 (≈ 36.5 µM) | > 64 | > 64 | > 64 | > 64 | 1 (≈ 0.571 µM) | > 64 | 4 (≈ 2.28 µM)
6 | CNC(CC(C)C)C(=O)NC1C(=O)NC(CC(N)=O)C(=O)NC2C(=O)NC3C(=O)NC(C(=O)N[C@H](C(=O)NCCCNC(=O)c4cc(=O)c(O)c[nH]4)c4cc(O)cc(O)c4-c4cc3ccc4O)C(O)c3ccc(c(Cl)c3)Oc3cc2cc(c3OC2OC(CO)C(O)C(O)C2OC2CC(C)(N)C(O)C(C)O2)Oc2ccc(cc2Cl)C1O (stereo in doubt) [Compound 20] | 32 (≈ 19.5 µM) | 64 (≈ 39 µM) | > 64 | 64 (≈ 39 µM) | 64 (≈ 39 µM) | 32 (≈ 19.5 µM) | > 64 | 32 (≈ 19.5 µM)
7 | CNC(CC(C)C)C(=O)NC1C(=O)NC(CC(N)=O)C(=O)NC2C(=O)NC3C(=O)NC(C(=O)N[C@H](C(=O)NCCCCNC(=O)c4cc(=O)c(O)c[nH]4)c4cc(O)cc(O)c4-c4cc3ccc4O)C(O)c3ccc(c(Cl)c3)Oc3cc2cc(c3OC2OC(CO)C(O)C(O)C2OC2CC(C)(N)C(O)C(C)O2)Oc2ccc(cc2Cl)C1O (stereo in doubt) [Compound 21] | 32 (≈ 19.3 µM) | 64 (≈ 38.6 µM) | > 64 | 64 (≈ 38.6 µM) | > 64 | 32 (≈ 19.3 µM) | > 64 | 32 (≈ 19.3 µM)
8 | CNC(CC(C)C)C(=O)NC1C(=O)NC(CC(N)=O)C(=O)NC2C(=O)NC3C(=O)NC(C(=O)N[C@H](C(=O)NCCCN4C(=O)c5cc(O)c(O)cc5C4=O)c4cc(O)cc(O)c4-c4cc3ccc4O)C(O)c3ccc(c(Cl)c3)Oc3cc2cc(c3OC2OC(CO)C(O)C(O)C2OC2CC(C)(N)C(O)C(C)O2)Oc2ccc(cc2Cl)C1O (stereo partly drawn) [Compound 1] | 64 (≈ 38.4 µM) | 64 (≈ 38.4 µM) | > 64 | > 64 | > 64 | 32 (≈ 19.2 µM) | > 64 | 8 (≈ 4.8 µM)
9 | CN[C@H](CC(C)C)C(=O)N[C@H]1C(=O)N[C@@H](CC(N)=O)C(=O)N[C@H]2C(=O)N[C@H]3C(=O)N[C@H](C(=O)N[C@H](C(=O)NCCCCN4C(=O)c5cc(O)c(O)cc5C4=O)c4cc(O)cc(O)c4-c4cc3ccc4O)[C@H](O)c3ccc(c(Cl)c3)Oc3cc2cc(c3O[C@@H]2O[C@H](CO)C(O)C(O)[C@H]2O[C@H]2CC(C)(N)[C@H](O)[C@H](C)O2)Oc2ccc(cc2Cl)[C@H]1O (stereo partly drawn) [Compound 2] | 32 (≈ 19 µM) | 32 (≈ 19 µM) | > 64 | > 64 | > 64 | 32 (≈ 19 µM) | > 64 | 8 (≈ 4.76 µM)
10 | CN[C@H](CC(C)C)C(=O)N[C@H]1C(=O)N[C@@H](CC(N)=O)C(=O)N[C@H]2C(=O)N[C@H]3C(=O)N[C@H](C(=O)N[C@H](C(=O)NCCCNC(=O)c4ccc(O)c(O)c4Cl)c4cc(O)cc(O)c4-c4cc3ccc4O)[C@H](O)c3ccc(c(Cl)c3)Oc3cc2cc(c3O[C@@H]2O[C@H](CO)C(O)C(O)[C@H]2O[C@H]2CC(C)(N)[C@H](O)[C@H](C)O2)Oc2ccc(cc2Cl)[C@H]1O (stereo partly drawn) [Compound 4] | 8 (≈ 4.77 µM) | > 64 | > 64 | > 64 | > 64 | 1 (≈ 0.597 µM) | > 64 | 2 (≈ 1.19 µM)
11 | CN[C@H](CC(C)C)C(=O)N[C@H]1C(=O)N[C@@H](CC(N)=O)C(=O)N[C@H]2C(=O)N[C@H]3C(=O)N[C@H](C(=O)N[C@H](C(=O)NCCCCNC(=O)c4ccc(O)c(O)c4Cl)c4cc(O)cc(O)c4-c4cc3ccc4O)[C@H](O)c3ccc(c(Cl)c3)Oc3cc2cc(c3O[C@@H]2O[C@H](CO)C(O)C(O)[C@H]2O[C@H]2CC(C)(N)[C@H](O)[C@H](C)O2)Oc2ccc(cc2Cl)[C@H]1O (stereo partly drawn) [Compound 5] | 8 (≈ 4.73 µM) | > 64 | > 64 | > 64 | > 64 | 1 (≈ 0.592 µM) | > 64 | 4 (≈ 2.37 µM)
12 | CN[C@H](CC(C)C)C(=O)N[C@H]1C(=O)N[C@@H](CC(N)=O)C(=O)N[C@H]2C(=O)N[C@H]3C(=O)N[C@H](C(=O)N[C@H](C(=O)NCCCCCNC(=O)c4ccc(O)c(O)c4Cl)c4cc(O)cc(O)c4-c4cc3ccc4O)[C@H](O)c3ccc(c(Cl)c3)Oc3cc2cc(c3O[C@@H]2O[C@H](CO)C(O)C(O)[C@H]2O[C@H]2CC(C)(N)[C@H](O)[C@H](C)O2)Oc2ccc(cc2Cl)[C@H]1O (stereo partly drawn) [Compound 6] | 64 (≈ 37.6 µM) | > 64 | > 64 | > 64 | > 64 | 4 (≈ 2.35 µM) | > 64 | 4 (≈ 2.35 µM)
